Assay results published in the OligoGym collection.
Values joined by “and” are separate entries in the source; they are usually repeats but may differ in a detail not shown here. Equal values may be shown once. HELM strings list units from the 5' end as sugar, base in round brackets, then linkage (d deoxyribose, r ribose, m 2'-O-methyl, p phosphodiester). Methylation of C is not given here. [moe] = 2'-O-(2-methoxyethyl) (MOE); [cEt] = constrained ethyl (cEt); [sp] = phosphorothioate linkage

Target: HBV
Conditions: ASO

Substance | target mRNA inhibition (HepG2, 0.07 µM) | other results
RNA1{[moe](G)[sp].[moe](C)[sp].d(A)[sp].d(G)[sp].d(A)[sp].d(G)[sp].d(G)[sp].d(T)[sp].d(G)[sp].d(A)[sp].d(A)[sp].[moe](G)[sp].[moe](C)[sp].[moe](G)[sp].[moe](A)[sp].[moe](A)}$$$$V2.0 | 58% and 57% | 
RNA1{[moe](G)[sp].[moe](C)[sp].d(A)[sp].d(G)[sp].d(T)[sp].d(A)[sp].d(T)[sp].d(G)[sp].d(G)[sp].d(A)[sp].d(T)[sp].[moe](C)[sp].[moe](G)[sp].[moe](G)[sp].[moe](C)[sp].[moe](A)}$$$$V2.0 | 76% and 73% | target mRNA inhibition (HepG2, 0.0092593 µM): 2%; target mRNA inhibition (HepG2, 0.0277778 µM): 25%; target mRNA inhibition (HepG2, 0.0833333 µM): 44%; target mRNA inhibition (HepG2, 0.25 µM): 77%
RNA1{[moe](G)[sp].[moe](G)[sp].[moe](A)[sp].[moe](G)[sp].[moe](T)[sp].d(T)[sp].d(C)[sp].d(C)[sp].d(G)[sp].d(C)[sp].d(A)[sp].d(G)[sp].d(T)[sp].d(A)[sp].[moe](T)[sp].[moe](G)}$$$$V2.0 | 74% and 50% | 
RNA1{[moe](G)[sp].[moe](G)[sp].[moe](C)[sp].[moe](A)[sp].[moe](T)[sp].d(A)[sp].d(G)[sp].d(C)[sp].d(A)[sp].d(G)[sp].d(C)[sp].d(A)[sp].d(G)[sp].d(G)[sp].[moe](A)[sp].[moe](T)[sp].[moe](G)}$$$$V2.0 | 0% | 
RNA1{[moe](G)[sp].[moe](G)[sp].[moe](C)[sp].d(A)[sp].d(T)[sp].d(A)[sp].d(G)[sp].d(C)[sp].d(A)[sp].d(G)[sp].d(C)[sp].d(A)[sp].[moe](G)[sp].[moe](G)[sp].[moe](A)[sp].[moe](T)[sp].[moe](G)}$$$$V2.0 | 68% and 66% | target mRNA inhibition (HepG2, 0.0092593 µM): 16%; target mRNA inhibition (HepG2, 0.0277778 µM): 11%; target mRNA inhibition (HepG2, 0.0833333 µM): 40%; target mRNA inhibition (HepG2, 0.25 µM): 66%
RNA1{[moe](G)[sp].[moe](G)[sp].[moe](T)[sp].[moe](G)[sp].[moe](A)[sp].d(A)[sp].d(G)[sp].d(C)[sp].d(G)[sp].d(A)[sp].d(A)[sp].d(G)[sp].d(T)[sp].d(G)[sp].[moe](C)[sp].[moe](A)}$$$$V2.0 | 51% and 46% | 
RNA1{[moe](G)[sp].[moe](G)[sp].d(T)[sp].d(G)[sp].d(A)[sp].d(A)[sp].d(G)[sp].d(C)[sp].d(G)[sp].d(A)[sp].d(A)[sp].[moe](G)[sp].[moe](T)[sp].[moe](G)[sp].[moe](C)[sp].[moe](A)[sp].[moe](C)}$$$$V2.0 | 77% and 71% | 
RNA1{[moe](G)[sp].[moe](G)[sp].d(T)[sp].d(G)[sp].d(A)[sp].d(A)[sp].d(G)[sp].d(C)[sp].d(G)[sp].d(A)[sp].d(A)[sp].[moe](G)[sp].[moe](T)[sp].[moe](G)[sp].[moe](C)[sp].[moe](A)}$$$$V2.0 | 65% and 62% | 
RNA1{[moe](G)[sp].[moe](T)[sp].[moe](G)[sp].[moe](C)[sp].d(A)[sp].d(G)[sp].d(A)[sp].d(G)[sp].d(G)[sp].d(T)[sp].d(G)[sp].d(A)[sp].d(A)[sp].[moe](G)[sp].[moe](C)[sp].[moe](G)[sp].[moe](A)}$$$$V2.0 | 62% and 54% | 
RNA1{[moe](G)[sp].[moe](T)[sp].[moe](G)[sp].[moe](C)[sp].d(A)[sp].d(G)[sp].d(A)[sp].d(G)[sp].d(G)[sp].d(T)[sp].d(G)[sp].d(A)[sp].d(A)[sp].[moe](G)[sp].[moe](C)[sp].[moe](G)}$$$$V2.0 | 64% and 63% | 
RNA1{[moe](G)[sp].[moe](T)[sp].[moe](G)[sp].d(C)[sp].d(A)[sp].d(G)[sp].d(A)[sp].d(G)[sp].d(G)[sp].d(T)[sp].d(G)[sp].d(A)[sp].d(A)[sp].[cEt](G)[sp].[cEt](C)[sp].[cEt](G)}$$$$V2.0 | 78% and 74% | 
RNA1{[moe](G)[sp].[moe](T)[sp].[moe](T)[sp].[moe](C)[sp].[moe](C)[sp].[moe](G)[sp].d(C)[sp].d(A)[sp].d(G)[sp].d(T)[sp].d(A)[sp].d(T)[sp].d(G)[sp].d(G)[sp].d(A)[sp].[moe](T)[sp].[moe](C)}$$$$V2.0 | 74% and 57% | 
RNA1{[moe](G)[sp].[moe](T)[sp].d(G)[sp].d(A)[sp].d(A)[sp].d(G)[sp].d(C)[sp].d(G)[sp].d(A)[sp].d(A)[sp].d(G)[sp].[moe](T)[sp].[moe](G)[sp].[moe](C)[sp].[moe](A)[sp].[moe](C)[sp].[moe](A)}$$$$V2.0 | 73% and 68% | 
RNA1{[moe](G)[sp].[moe](T)[sp].d(G)[sp].d(C)[sp].d(A)[sp].d(G)[sp].d(A)[sp].d(G)[sp].d(G)[sp].d(T)[sp].d(G)[sp].[moe](A)[sp].[moe](A)[sp].[moe](G)[sp].[moe](C)[sp].[moe](G)}$$$$V2.0 | 53% and 42% | 
RNA1{[moe](T)[sp].[cEt](A)[sp].[cEt](T)[sp].d(G)[sp].d(C)[sp].d(C)[sp].d(T)[sp].d(A)[sp].d(C)[sp].d(A)[sp].d(G)[sp].d(C)[sp].d(C)[sp].[cEt](T)[sp].[cEt](C)[sp].[moe](C)}$$$$V2.0 | 55% and 36% | 
RNA1{[moe](T)[sp].[cEt](G)[sp].d(A)[sp].d(G)[sp].d(A)[sp].d(G)[sp].d(A)[sp].d(A)[sp].d(G)[sp].d(T)[sp].d(C)[sp].d(C)[sp].[cEt](A)[sp].[moe](C)[sp].[cEt](C)[sp].[moe](A)}$$$$V2.0 | 60% and 43% | 
RNA1{[moe](T)[sp].[cEt](G)[sp].d(A)[sp].d(G)[sp].d(G)[sp].d(C)[sp].d(A)[sp].d(T)[sp].d(A)[sp].d(G)[sp].d(C)[sp].d(A)[sp].[cEt](G)[sp].[moe](C)[sp].[cEt](A)[sp].[moe](G)}$$$$V2.0 | 69% and 75% | 
RNA1{[moe](T)[sp].[cEt](T)[sp].[cEt](C)[sp].d(C)[sp].d(G)[sp].d(C)[sp].d(A)[sp].d(G)[sp].d(T)[sp].d(A)[sp].d(T)[sp].d(G)[sp].d(G)[sp].[cEt](A)[sp].[cEt](T)[sp].[moe](C)}$$$$V2.0 | 47% and 61% | 
RNA1{[moe](T)[sp].[cEt](T)[sp].[cEt](T)[sp].d(A)[sp].d(T)[sp].d(G)[sp].d(C)[sp].d(C)[sp].d(T)[sp].d(A)[sp].d(C)[sp].d(A)[sp].d(G)[sp].[cEt](C)[sp].[cEt](C)[sp].[moe](T)}$$$$V2.0 | 55% and 49% | 
RNA1{[moe](T)[sp].[moe](A)[sp].[moe](T)[sp].[moe](G)[sp].d(C)[sp].d(C)[sp].d(T)[sp].d(A)[sp].d(C)[sp].d(A)[sp].d(G)[sp].d(C)[sp].d(C)[sp].[moe](T)[sp].[moe](C)[sp].[moe](C)}$$$$V2.0 | 33% and 42% | 
RNA1{[moe](T)[sp].[moe](A)[sp].[moe](T)[sp].d(G)[sp].d(C)[sp].d(C)[sp].d(T)[sp].d(A)[sp].d(C)[sp].d(A)[sp].d(G)[sp].d(C)[sp].d(C)[sp].[cEt](T)[sp].[cEt](C)[sp].[cEt](C)}$$$$V2.0 | 39% and 45% | 
RNA1{[moe](T)[sp].[moe](A)[sp].d(T)[sp].d(G)[sp].d(C)[sp].d(C)[sp].d(T)[sp].d(A)[sp].d(C)[sp].d(A)[sp].d(G)[sp].[moe](C)[sp].[moe](C)[sp].[moe](T)[sp].[moe](C)[sp].[moe](C)}$$$$V2.0 | 54% and 55% | 
RNA1{[moe](T)[sp].[moe](G)[sp].[moe](A)[sp].[moe](A)[sp].d(G)[sp].d(C)[sp].d(G)[sp].d(A)[sp].d(A)[sp].d(G)[sp].d(T)[sp].d(G)[sp].d(C)[sp].[moe](A)[sp].[moe](C)[sp].[moe](A)[sp].[moe](C)}$$$$V2.0 | 62% and 51% | 
